According to patent publication US6737383B1, “Herbicidal oxadiazolidines” (priority 1999, dated 2004):

Experiments:
morningglory = assay: Test B pre/postemergence morningglory; assay type: in vivo, Ipomoea hederacea
In short: (§1)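 Test chemicals in a non-phytotoxic solvent mixture with surfactant were sprayed preemergence onto planted seeds and postemergence onto plants 2 to 18 cm tall (1- to 4-leaf stage). After twelve to sixteen days in a greenhouse, injury was visually rated against untreated controls from 0 (no effect) to 10 (complete control).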

duck salad = assay: Test B flood test duck salad; assay type: in vivo, Heteranthera limosa
In short: (§2)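 Plants were grown to the 2-leaf stage before treatment with test chemical, then held in a greenhouse for twelve to sixteen days. Injury was visually rated against untreated controls on a 0–10 scale, where 0 is no effect and 10 is complete control.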

rice = assay: Test B flood test rice; assay type: in vivo, Oryza sativa
In short: as §2

bedstraw = assay: Test B pre/postemergence bedstraw; assay type: in vivo, Galium aparine
In short: as §1

cocklebur = assay: Test B pre/postemergence cocklebur; assay type: in vivo, Xanthium strumarium
In short: as §1

corn = assay: Test B pre/postemergence corn; assay type: in vivo, Zea mays
In short: as §1

crabgrass = assay: Test B pre/postemergence crabgrass; assay type: in vivo, Digitaria sanguinalis
In short: as §1

soybean = assay: Test B pre/postemergence soybean; assay type: in vivo, Glycine max
In short: as §1

purple nutsedge = assay: Test B pre/postemergence purple nutsedge; assay type: in vivo, Cyperus rotundus
In short: as §1

pigweed = assay: Test B pre/postemergence pigweed; assay type: in vivo, Amaranthus retroflexus
In short: as §1

wild oat = assay: Test B pre/postemergence wild oat; assay type: in vivo, Avena fatua
In short: as §1

smallflower flatsedge = assay: Test B flood test smallflower flatsedge; assay type: in vivo, Cyperus difformis
In short: as §2

surinam grass = assay: Test B pre/postemergence surinam grass; assay type: in vivo, Brachiaria decumbens
In short: as §1

giant foxtail = assay: Test B pre/postemergence giant foxtail; assay type: in vivo, Setaria faberii
In short: as §1

sugar beet = assay: Test B pre/postemergence sugar beet; assay type: in vivo, Beta vulgaris
In short: as §1

blackgrass = assay: Test B pre/postemergence blackgrass; assay type: in vivo, Alopecurus myosuroides
In short: as §1

[1] = Preemergence, Rate 62 g/ha, scale of 0 to 10 where 0 is no effect and 10 is complete control
[2] = Preemergence, Rate 250 g/ha, scale of 0 to 10 where 0 is no effect and 10 is complete control
[3] = Preemergence, Rate 500 g/ha, scale of 0 to 10 where 0 is no effect and 10 is complete control
[4] = Rate 62 g/ha, Postemergence, scale 0 to 10 (0 no effect, 10 complete control)
[5] = Rate 125 g/ha, Postemergence, scale of 0 to 10 where 0 is no effect and 10 is complete control
[6] = Rate 125 g/ha, Preemergence, scale of 0 to 10 where 0 is no effect and 10 is complete control
[7] = Rate 250 g/ha, Postemergence, scale of 0 to 10 where 0 is no effect and 10 is complete control
[8] = Rate 500 g/ha, Postemergence, scale 0 to 10, 0 no effect, 10 complete control
[9] = Rate 62 g/ha, headed Pre-emergence (flood test species), scale 0 to 10 (0 no effect, 10 complete control)
[10] = Rate 125 g/ha, Pre-emergence, flood test species, scale 0 to 10 where 0 is no effect and 10 is complete control
[11] = Rate 250 g/ha, Pre-emergence, flood-test species, scale 0 to 10, 0 is no effect, 10 is complete control
[12] = Rate 500 g/ha, Pre-emergence, flood test species, scale 0 to 10 (0 no effect, 10 complete control)

Q: With Cc1ccccc1-n1c(=O)on(C(=O)N(c2ccc3c(c2)CCC3)C(C)C)c1=O [Compound 278] as the molecule, how does the “Morningglory plant response rating” value (morningglory; [1]) read?
A: 0

Q: And the “Morningglory plant response rating” value (morningglory; [2])?
A: 0

Q: What about the “Plant response rating, Morningglory” value (morningglory; [3]) of the same molecule?
A: 0

Q: What about the “Morningglory plant response rating” value (morningglory; [4]) of the same molecule?
A: 3

Q: What about the “Morningglory plant response rating” value (morningglory; [5]) of the same molecule?
A: 3

Q: And the “Morningglory plant response rating” value (morningglory; [6])?
A: 0

Q: And the “Plant response rating, Morningglory” value (morningglory; [7])?
A: 4

Q: And the “Morningglory plant response rating” value (morningglory; [8])?
A: 4

Q: What about the “Ducksalad plant response rating” value (duck salad; [9]) of the same molecule?
A: 0

Q: What about the “Ducksalad plant response rating” value (duck salad; [10]) of the same molecule?
A: 0

Q: What about the “Ducksalad plant response rating” value (duck salad; [11]) of the same molecule?
A: 0

Q: What about the “Ducksalad plant response rating” value (duck salad; [12]) of the same molecule?
A: 0

Q: What about the “Rice plant response rating” value (rice; [9]) of the same molecule?
A: 0

Q: What about the “Rice plant response rating” value (rice; [10]) of the same molecule?
A: 0

Q: What about the “Rice plant response rating” value (rice; [11]) of the same molecule?
A: 0

Q: And the “Rice plant response rating” value (rice; [12])?
A: 0

Q: What about the “Bedstraw plant response rating” value (bedstraw; [2]) of the same molecule?
A: 0

Q: And the “Plant response rating, Bedstraw” value (bedstraw; [3])?
A: 0

Q: And the “Bedstraw plant response rating” value (bedstraw; [4])?
A: 0

Q: And the “Bedstraw plant response rating” value (bedstraw; [5])?
A: 0

Q: What about the “Bedstraw plant response rating” value (bedstraw; [6]) of the same molecule?
A: 0

Q: What about the “Plant response rating, Bedstraw” value (bedstraw; [7]) of the same molecule?
A: 6

Q: What about the “Bedstraw plant response rating” value (bedstraw; [8]) of the same molecule?
A: 8

Q: And the “Cocklebur plant response rating” value (cocklebur; [1])?
A: 0

Q: And the “Cocklebur plant response rating” value (cocklebur; [2])?
A: 0

Q: What about the “Plant response rating, Cocklebur” value (cocklebur; [3]) of the same molecule?
A: 0

Q: What about the “Cocklebur plant response rating” value (cocklebur; [4]) of the same molecule?
A: 0

Q: And the “Cocklebur plant response rating” value (cocklebur; [5])?
A: 0

Q: And the “Cocklebur plant response rating” value (cocklebur; [6])?
A: 0

Q: And the “Plant response rating, Cocklebur” value (cocklebur; [7])?
A: 0

Q: What about the “Cocklebur plant response rating” value (cocklebur; [8]) of the same molecule?
A: 3

Q: What about the “Corn plant response rating” value (corn; [1]) of the same molecule?
A: 0

Q: What about the “Corn plant response rating” value (corn; [2]) of the same molecule?
A: 0

Q: What about the “Plant response rating, Corn” value (corn; [3]) of the same molecule?
A: 0

Q: What about the “Corn plant response rating” value (corn; [4]) of the same molecule?
A: 0

Q: What about the “Corn plant response rating” value (corn; [5]) of the same molecule?
A: 0

Q: What about the “Corn plant response rating” value (corn; [6]) of the same molecule?
A: 0

Q: What about the “Plant response rating, Corn” value (corn; [7]) of the same molecule?
A: 0

Q: What about the “Corn plant response rating” value (corn; [8]) of the same molecule?
A: 0

Q: What about the “Crabgrass plant response rating” value (crabgrass; [1]) of the same molecule?
A: 0

Q: And the “Crabgrass plant response rating” value (crabgrass; [2])?
A: 2

Q: And the “Plant response rating, Crabgrass” value (crabgrass; [3])?
A: 4

Q: What about the “Crabgrass plant response rating” value (crabgrass; [4]) of the same molecule?
A: 0

Q: What about the “Crabgrass plant response rating” value (crabgrass; [5]) of the same molecule?
A: 0

Q: And the “Crabgrass plant response rating” value (crabgrass; [6])?
A: 1

Q: What about the “Plant response rating, Crabgrass” value (crabgrass; [7]) of the same molecule?
A: 0

Q: And the “Crabgrass plant response rating” value (crabgrass; [8])?
A: 0

Q: What about the “Soybean plant response rating” value (soybean; [1]) of the same molecule?
A: 0

Q: What about the “Soybean plant response rating” value (soybean; [2]) of the same molecule?
A: 0

Q: What about the “Plant response rating, Soybean” value (soybean; [3]) of the same molecule?
A: 0

Q: What about the “Soybean plant response rating” value (soybean; [4]) of the same molecule?
A: 1

Q: What about the “Soybean plant response rating” value (soybean; [5]) of the same molecule?
A: 1

Q: And the “Soybean plant response rating” value (soybean; [6])?
A: 0

Q: And the “Plant response rating, Soybean” value (soybean; [7])?
A: 1

Q: What about the “Soybean plant response rating” value (soybean; [8]) of the same molecule?
A: 1

Q: And the “Nutsedge plant response rating” value (purple nutsedge; [2])?
A: 0

Q: What about the “Nutsedge plant response rating” value (purple nutsedge; [4]) of the same molecule?
A: 0

Q: What about the “Nutsedge plant response rating” value (purple nutsedge; [5]) of the same molecule?
A: 0

Q: What about the “Nutsedge plant response rating” value (purple nutsedge; [6]) of the same molecule?
A: 0

Q: What about the “Plant response rating, Nutsedge” value (purple nutsedge; [7]) of the same molecule?
A: 0

Q: And the “Nutsedge plant response rating” value (purple nutsedge; [8])?
A: 0

Q: What about the “Redroot pigweed plant response rating” value (pigweed; [1]) of the same molecule?
A: 0

Q: What about the “Redroot pigweed plant response rating” value (pigweed; [2]) of the same molecule?
A: 0

Q: What about the “Plant response rating, Redroot pigweed” value (pigweed; [3]) of the same molecule?
A: 0

Q: What about the “Redroot pigweed plant response rating” value (pigweed; [4]) of the same molecule?
A: 0

Q: And the “Redroot pigweed plant response rating” value (pigweed; [5])?
A: 0

Q: And the “Redroot pigweed plant response rating” value (pigweed; [6])?
A: 0

Q: What about the “Plant response rating, Redroot pigweed” value (pigweed; [7]) of the same molecule?
A: 0

Q: And the “Redroot pigweed plant response rating” value (pigweed; [8])?
A: 4

Q: What about the “Wild oats plant response rating” value (wild oat; [1]) of the same molecule?
A: 0

Q: What about the “Wild oats plant response rating” value (wild oat; [2]) of the same molecule?
A: 0

Q: And the “Plant response rating, Wild oats” value (wild oat; [3])?
A: 0

Q: And the “Wild oats plant response rating” value (wild oat; [4])?
A: 0

Q: And the “Wild oats plant response rating” value (wild oat; [5])?
A: 0

Q: And the “Plant response rating, Wild oats” value (wild oat; [7])?
A: 0

Q: What about the “Wild oats plant response rating” value (wild oat; [8]) of the same molecule?
A: 0

Q: And the “S. Flatsedge plant response rating” value (smallflower flatsedge; [9])?
A: 0

Q: And the “S. Flatsedge plant response rating” value (smallflower flatsedge; [10])?
A: 0

Q: What about the “S. Flatsedge plant response rating” value (smallflower flatsedge; [11]) of the same molecule?
A: 0

Q: And the “S. Flatsedge plant response rating” value (smallflower flatsedge; [12])?
A: 0

Q: And the “B. signalgrass plant response rating” value (surinam grass; [1])?
A: 0

Q: And the “B. signalgrass plant response rating” value (surinam grass; [2])?
A: 0

Q: What about the “Plant response rating, B. signalgrass” value (surinam grass; [3]) of the same molecule?
A: 0

Q: And the “B. signalgrass plant response rating” value (surinam grass; [4])?
A: 0

Q: What about the “B. signalgrass plant response rating” value (surinam grass; [5]) of the same molecule?
A: 0

Q: And the “B. signalgrass plant response rating” value (surinam grass; [6])?
A: 0

Q: And the “Plant response rating, B. signalgrass” value (surinam grass; [7])?
A: 0

Q: What about the “B. signalgrass plant response rating” value (surinam grass; [8]) of the same molecule?
A: 0

Q: What about the “Giant foxtail plant response rating” value (giant foxtail; [1]) of the same molecule?
A: 0

Q: What about the “Giant foxtail plant response rating” value (giant foxtail; [2]) of the same molecule?
A: 2

Q: And the “Plant response rating, Giant foxtail” value (giant foxtail; [3])?
A: 8

Q: What about the “Giant foxtail plant response rating” value (giant foxtail; [4]) of the same molecule?
A: 0

Q: And the “Giant foxtail plant response rating” value (giant foxtail; [5])?
A: 0

Q: What about the “Giant foxtail plant response rating” value (giant foxtail; [6]) of the same molecule?
A: 2

Q: What about the “Plant response rating, Giant foxtail” value (giant foxtail; [7]) of the same molecule?
A: 0

Q: And the “Giant foxtail plant response rating” value (giant foxtail; [8])?
A: 0

Q: What about the “Sugarbeets plant response rating” value (sugar beet; [1]) of the same molecule?
A: 0

Q: And the “Sugarbeets plant response rating” value (sugar beet; [2])?
A: 0

Q: And the “Plant response rating, Sugarbeets” value (sugar beet; [3])?
A: 0

Q: What about the “Sugarbeets plant response rating” value (sugar beet; [4]) of the same molecule?
A: 0

Q: And the “Sugarbeets plant response rating” value (sugar beet; [5])?
A: 0

Q: And the “Sugarbeets plant response rating” value (sugar beet; [6])?
A: 0

Q: What about the “Plant response rating, Sugarbeets” value (sugar beet; [7]) of the same molecule?
A: 0

Q: What about the “Sugarbeets plant response rating” value (sugar beet; [8]) of the same molecule?
A: 0

Q: And the “Blackgrass plant response rating” value (blackgrass; [1])?
A: 0

Q: And the “Blackgrass plant response rating” value (blackgrass; [2])?
A: 0

Q: And the “Plant response rating, Blackgrass” value (blackgrass; [3])?
A: 0

Q: What about the “Blackgrass plant response rating” value (blackgrass; [4]) of the same molecule?
A: 0

Q: What about the “Blackgrass plant response rating” value (blackgrass; [5]) of the same molecule?
A: 0

Q: What about the “Blackgrass plant response rating” value (blackgrass; [6]) of the same molecule?
A: 0

Q: What about the “Plant response rating, Blackgrass” value (blackgrass; [7]) of the same molecule?
A: 0

Q: What about the “Blackgrass plant response rating” value (blackgrass; [8]) of the same molecule?
A: 0
